According to the supplement of paper PMC10307832:

How the values were obtained:
Assay in all cases: relative viability (nuclei count vs DMSO), 5 days (fraction); higher = more cells survive
[1] = test system: HCC-78
Outline: (§1)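 Five library-drug doses in √10 steps were combined with a fixed anchor-drug dose, or a single drug was given alone, by pin tool to lung cancer cell lines in 1536-well plates the day after seeding. Nuclei were stained and counted after 5 days. Relative viability is the nuclei count in treated wells over that in vehicle wells, taken as the median of duplicate plates.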

[2] = test system: NCI-H2087
Outline: as §1

[3] = test system: NCI-H1915
Outline: as §1

[4] = test system: H3255
Outline: as §1

[5] = test system: NCI-H661
Outline: as §1

[6] = test system: NCI-H2405
Outline: as §1

[7] = test system: NCI-H2347
Outline: as §1

[8] = test system: NCI-H650
Outline: as §1

[9] = test system: HCC-827
Outline: as §1

[10] = test system: ChaGo-K-1
Outline: as §1

[11] = test system: COR-L 105
Outline: as §1

[12] = test system: PC-14; conditions: first compound 0.04 µM
Outline: as §1

Cc1sc2c(c1C)C(c1ccc(Cl)cc1)=N[C@@H](CC(=O)OC(C)(C)C)c1nnc(C)n1-2 [JQ1] + C[C@@H](Oc1cc(-c2cnn(C3CCNCC3)c2)cnc1N)c1c(Cl)ccc(F)c1Cl [Crizotinib] (partner 1 µM)
relative viability ([1]; first compound 0.04 µM): 0.314 | relative viability ([1]; first compound 0.1265 µM): 0.33 | relative viability ([1]; first compound 0.4 µM): 0.348 | relative viability ([1]; first compound 1.265 µM): 0.275 | relative viability ([1]; first compound 4 µM): 0.251 | relative viability ([2]; first compound 0.04 µM): 0.901 | relative viability ([2]; first compound 0.4 µM): 0.862 | relative viability ([2]; first compound 1.265 µM): 0.602 | relative viability ([2]; first compound 4 µM): 0.344 | relative viability ([3]; first compound 0.04 µM): 0.891 | relative viability ([3]; first compound 0.1265 µM): 0.829 | relative viability ([3]; first compound 0.4 µM): 0.735 | relative viability ([3]; first compound 1.265 µM): 0.462 | relative viability ([3]; first compound 4 µM): 0.233 | relative viability ([4]; first compound 0.04 µM): 0.828 | relative viability ([4]; first compound 0.1265 µM): 0.715 | relative viability ([4]; first compound 0.4 µM): 0.741 | relative viability ([4]; first compound 1.265 µM): 0.316 | relative viability ([4]; first compound 4 µM): 0.221 | relative viability ([5]; first compound 0.04 µM): 1 | relative viability ([5]; first compound 0.1265 µM): 1.08 | relative viability ([5]; first compound 1.265 µM): 1.05 | relative viability ([5]; first compound 4 µM): 0.776 | relative viability ([6]; first compound 0.04 µM): 0.829 | relative viability ([6]; first compound 0.1265 µM): 0.711 | relative viability ([6]; first compound 0.4 µM): 0.749 | relative viability ([6]; first compound 1.265 µM): 0.555 | relative viability ([6]; first compound 4 µM): 0.395 | relative viability ([7]; first compound 0.04 µM): 0.673 | relative viability ([7]; first compound 0.1265 µM): 0.549 | relative viability ([7]; first compound 0.4 µM): 0.646 | relative viability ([7]; first compound 1.265 µM): 0.555 | relative viability ([7]; first compound 4 µM): 0.431 | relative viability ([8]; first compound 0.04 µM): 0.7 | relative viability ([8]; first compound 0.1265 µM): 0.445 | relative viability ([8]; first compound 0.4 µM): 0.343 | relative viability ([8]; first compound 1.265 µM): 0.174 | relative viability ([8]; first compound 4 µM): 0.195 | relative viability ([9]; first compound 0.04 µM): 1.01 | relative viability ([9]; first compound 0.4 µM): 0.663 | relative viability ([9]; first compound 1.265 µM): 0.672 | relative viability ([9]; first compound 4 µM): 0.668 | relative viability ([10]; first compound 0.04 µM): 1.04 | relative viability ([10]; first compound 0.4 µM): 0.689 | relative viability ([10]; first compound 1.265 µM): 0.513 | relative viability ([10]; first compound 4 µM): 0.387 | relative viability ([11]; first compound 0.04 µM): 0.705 | relative viability ([11]; first compound 0.1265 µM): 0.25 | relative viability ([11]; first compound 0.4 µM): 0.403 | relative viability ([11]; first compound 1.265 µM): 0.245 | relative viability ([11]; first compound 4 µM): 0.267 | relative viability [12]: 0.907
